Reference: BindingDB's records for doi:10.1021/jm00018a011 (Pfizer, 1995)

target: Platelet-activating factor receptor (Oryctolagus cuniculus); assay: Antagonistic activity was tested against Platelet-Activating Factor-induced aggregation of rabbit washed platelets.

| SMILES | IC50 |
| --- | --- |
| Cc1nc2cnccc2n1-c1ccc(C2=Nc3ccccc3C(=O)CC2)cc1 [2-[4-(2-Methyl-imidazo[4,5-c]pyridin-1-yl)-phenyl]-1,4-dihydro-benzo[b]azepin-5-one] | 15 nM |
| Cc1nc2cnccc2n1-c1ccccc1 [2-Methyl-1-phenyl-1H-imidazo[4,5-c]pyridine] | 840 nM |
| Cc1nc2cnccc2n1-c1ccc(I)cc1 [1-(4-Iodo-phenyl)-2-methyl-1H-imidazo[4,5-c]pyridine] | 67 nM |
| Cc1nc2cnccc2n1-c1ccc(C2=Nc3ccccc3N(C)C(=O)C2)cc1 [1-Methyl-4-[4-(2-methyl-imidazo[4,5-c]pyridin-1-yl)-phenyl]-1,3-dihydro-benzo[b][1,4]diazepin-2-one] | 4.9 nM |
| Cc1cc2c(cc1C)N=C(c1ccc(-n3c(C)nc4cnccc43)cc1)CC(N)=N2 [7,8-Dimethyl-4-[4-(2-methyl-imidazo[4,5-c]pyridin-1-yl)-phenyl]-1,3-dihydro-benzo[b][1,4]diazepin-(2E)-ylideneamine] | 1.9 nM |
| Cc1nc2cnccc2n1-c1ccc(C2=NCCNC(=O)C2)cc1 [7-[4-(2-Methyl-imidazo[4,5-c]pyridin-1-yl)-phenyl]-1,2,3,4-tetrahydro-[1,4]diazepin-5-one] | 2600 nM |
| Cc1nc2cnccc2n1-c1ccc(-c2cc(=O)n3[nH]ccc3n2)cc1 [5-[4-(2-Methyl-imidazo[4,5-c]pyridin-1-yl)-phenyl]-4H-pyrazolo[1,5-a]pyrimidin-7-one] | 2800 nM |
| Cc1nc2cnccc2n1-c1ccc(-c2nnc(-c3ccccc3)o2)cc1 [2-Methyl-1-[4-(5-phenyl-[1,3,4]oxadiazol-2-yl)-phenyl]-1H-imidazo[4,5-c]pyridine] | 44 nM |
| Cc1nc2cnccc2n1-c1ccc(C2=NC3CCCCC3NC(=O)C2)cc1 (centres undefined) [4-[4-(2-Methyl-imidazo[4,5-c]pyridin-1-yl)-phenyl]-1,5,5a,6,7,8,9,9a-octahydro-benzo[b][1,4]diazepin-2-one] | 200 nM |

Stronger by IC50, values ahead:

| IC50 | SMILES |
| --- | --- |
| 0.7 nM | Cc1cc2c(cc1C)NC(=O)CC(c1ccc(-n3c(C)nc4cnccc43)cc1)=N2 [7,8-Dimethyl-4-[4-(2-methyl-imidazo[4,5-c]pyridin-1-yl)-phenyl]-1,3-dihydro-benzo[b][1,4]diazepin-2-one] |
| 0.6 nM | Cc1cc2c(cc1C)NC(=S)CC(c1ccc(-n3c(C)nc4cnccc43)cc1)=N2 [7,8-Dimethyl-4-[4-(2-methyl-imidazo[4,5-c]pyridin-1-yl)-phenyl]-1,3-dihydro-benzo[b][1,4]diazepine-2-thione] |
| 0.5 nM | Cc1nc2cnccc2n1-c1ccc(C2=Nc3cc(Cl)c(Cl)cc3NC(=S)C2)cc1 [7,8-Dichloro-4-[4-(2-methyl-imidazo[4,5-c]pyridin-1-yl)-phenyl]-1,3-dihydro-benzo[b][1,4]diazepine-2-thione] |
| 0.5 nM | Cc1nc2cnccc2n1-c1ccc(C2CC(=O)Nc3cc(Cl)c(Cl)cc3C2)cc1 (centres undefined) [7,8-Dichloro-4-[4-(2-methyl-imidazo[4,5-c]pyridin-1-yl)-phenyl]-1,3,4,5-tetrahydro-benzo[b]azepin-2-one] |
| 0.5 nM | Cc1nc2cnccc2n1-c1ccc(C2CC(=O)N(C)c3cc(Cl)c(Cl)cc3C2)cc1 (centres undefined) [7,8-Dichloro-1-methyl-4-[4-(2-methyl-imidazo[4,5-c]pyridin-1-yl)-phenyl]-1,3,4,5-tetrahydro-benzo[b]azepin-2-one] |
